What was measured:
Assay type in all cases: in vivo
[1] = test system: Chilo suppressalis (Striped Rice Stemborer); experiment: Example B3: Chilo suppressalis, artificial diet; conditions: 144 h, application rate of 200 ppm, L2 larvae, 6 days after infestation, read-out: control in at least one of the three categories (mortality, anti-feedant effect, or growth inhibition)
Procedure: Example B3: Chilo suppressalis (Striped Rice Stemborer)
24-well microtiter plates with artificial diet were treated with aqueous test solutions prepared from 10,000 ppm DMSO stock solutions by pipetting. After drying, the plates were infested with L2 larvae (6-8 per well). The samples were assessed for mortality, anti-feeding effect, and growth inhibition in comparison to untreated samples 6 days after infestation. Control of Chilo suppressalis by a test sample is given when at least one of the categories mortality, anti-feedant effect, and growth inhibition is higher than the untreated sample.

[2] = test system: Spodoptera littoralis (Egyptian Cotton Leaf Worm); experiment: Example B6: Spodoptera littoralis, spray on cotton leaf discs; conditions: foliar, 72 h, application rate of 200 ppm, L1 larvae, 3 days after infestation, read-out: control in at least one of the three categories (mortality, anti-feedant effect, or growth inhibition)
Procedure: Example B6: Spodoptera littoralis (Egyptian Cotton Leaf Worm)
Cotton leaf discs were placed onto agar in 24-well microtiter plates and sprayed with aqueous test solutions prepared from 10,000 ppm DMSO stock solutions. After drying the leaf discs were infested with five L1 larvae. The samples were assessed for mortality, anti-feeding effect, and growth inhibition in comparison to untreated samples 3 days after infestation. Control of Spodoptera littoralis by a test sample is given when at least one of the categories mortality, anti-feedant effect, and growth inhibition is higher than the untreated sample.

[3] = test system: Diabrotica balteata (Corn Root Worm); experiment: Example B1: Diabrotica balteata, spray on maize sprouts; conditions: 96 h, application rate of 200 ppm, L2 larvae, 4 days after infestation, read-out: control in at least one of the two categories (mortality or growth inhibition)
Procedure: Example B1: Diabrotica balteata (Corn Root Worm)
Maize sprouts placed onto an agar layer in 24-well microtiter plates were treated with aqueous test solutions prepared from 10,000 ppm DMSO stock solutions by spraying. After drying, the plates were infested with L2 larvae (6 to 10 per well). The samples were assessed for mortality and growth inhibition in comparison to untreated samples 4 days after infestation.
(§1) The following compounds gave an effect of at least 80% control in at least one of the two categories (mortality or growth inhibition) at an application rate of 200 ppm: […]

[4] = test system: Plutella xylostella (Diamond Back Moth); experiment: Example B4: Plutella xylostella, artificial diet, 24-well; conditions: 192 h, application rate of 200 ppm, eggs, 8 days after infestation, read-out: control in at least one of the two categories (mortality or growth inhibition)
Procedure: Example B4: Plutella xylostella (Diamond Back Moth)
24-well microtiter plates with artificial diet were treated with aqueous test solutions prepared from 10,000 ppm DMSO stock solutions by pipetting. After drying, Plutella eggs were pipetted through a plastic stencil onto a gel blotting paper and the plate was closed with it. The samples were assessed for mortality and growth inhibition in comparison to untreated samples 8 days after infestation.
as §1

[5] = test system: Myzus persicae (Green Peach Aphid); experiment: Example B10: Myzus persicae, sucrose solution, 96-well; conditions: 120 h, application rate of 50 ppm, 5 days after infestation
Source text: Example B10: Myzus persicae (Green Peach Aphid)
Test compounds prepared from 10,000 ppm DMSO stock solutions were applied by a liquid handling robot into 96-well microtiter plates and mixed with a sucrose solution. Parafilm was stretched over the 96-well microtiter plate and a plastic stencil with 96 holes was placed onto the plate. Aphids were sieved into the wells directly onto the Parafilm. The infested plates were closed with a gel blotting card and a second plastic stencil and then turned upside down. The samples were assessed for mortality 5 days after infestation.

[6] = test system: Plutella xylostella (Diamondback Moth); experiment: Example B9: Plutella xylostella, artificial diet, 96-well; conditions: 216 h, application rate of 500 ppm, eggs/L1 larvae, 9 days after infestation
Procedure: Example B9: Plutella xylostella (Diamondback Moth)
96-well microtiter plates containing artificial diet were treated with aqueous test solutions, prepared from 10,000 ppm DMSO stock solutions, by a liquid handling robot. After drying, eggs (˜30 per well) were infested onto a netted lid which was suspended above the diet. The eggs hatch and L1 larvae move down to the diet. The samples were assessed for mortality 9 days after infestation.
The following compounds gave an effect of at least 80% mortality at an application rate of 500 ppm: […]

[7] = test system: Euschistus heros (Neotropical Brown Stink Bug); experiment: Example B2: Euschistus heros, spray on soybean leaves; conditions: 120 h, application rate of 200 ppm, N2 nymphs, 5 days after infestation, read-out: control in at least one of the two categories (mortality or growth inhibition)
Procedure: Example B2: Euschistus heros (Neotropical Brown Stink Bug)
Soybean leaves on agar in 24-well microtiter plates were sprayed with aqueous test solutions prepared from 10,000 ppm DMSO stock solutions. After drying the leaves were infested with N2 nymphs. The samples were assessed for mortality and growth inhibition in comparison to untreated samples 5 days after infestation.
as §1

CC(NC(=O)c1cc(Cl)nc(C(F)(F)F)c1)c1nccnc1-n1nccn1 (centres unmarked) [Compound P22, 2-chloro-N-[1-[3-(triazol-2-yl)pyrazin-2-yl]ethyl]-6-(trifluoromethyl)pyridine-4-carboxamide]
≥ 80%: percent control (mortality, anti-feedant effect or growth inhibition) at 200 ppm [1] | percent control (mortality, anti-feedant effect or growth inhibition) at 200 ppm [2] | percent control (mortality or growth inhibition) at 200 ppm [3] | percent control (mortality or growth inhibition) at 200 ppm [4] | mortality at 50 ppm [5] | mortality at 500 ppm [6]

CC(NC(=O)c1cc(C(F)(F)F)cc(C(F)(F)F)c1)c1nccnc1-n1nc2ccccc2n1 (centres unmarked) [Compound P52, N-[1-[3-(benzotriazol-2-yl)pyrazin-2-yl]ethyl]-3,5-bis(trifluoromethyl)benzamide]
≥ 80%: percent control (mortality, anti-feedant effect or growth inhibition) at 200 ppm [1] | percent control (mortality, anti-feedant effect or growth inhibition) at 200 ppm [2] | percent control (mortality or growth inhibition) at 200 ppm [3] | percent control (mortality or growth inhibition) at 200 ppm [4] | mortality at 500 ppm [6]

CC(NC(=O)c1cc(C(F)(F)F)nc(C2(C#N)CC2)c1)c1nccnc1-n1nccn1 (centres unmarked) [Compound P14, 2-(1-cyanocyclopropyl)-N-[1-[3-(triazol-2-yl)pyrazin-2-yl]ethyl]-6-(trifluoromethyl)pyridine-4-carboxamide]
≥ 80%: percent control (mortality, anti-feedant effect or growth inhibition) at 200 ppm [1] | percent control (mortality, anti-feedant effect or growth inhibition) at 200 ppm [2] | percent control (mortality or growth inhibition) at 200 ppm [3] | percent control (mortality or growth inhibition) at 200 ppm [4] | percent control (mortality or growth inhibition) at 200 ppm [7]

CC(NC(=O)c1cc(C2CC2C(F)(F)F)cc(C(F)(F)F)c1)c1nccnc1-n1nccn1 (centres unmarked) [Compound P9, N-[1-[3-(triazol-2-yl)pyrazin-2-yl]ethyl]-3-(trifluoromethyl)-5-[2-(trifluoromethyl)cyclopropyl]benzamide]
≥ 80%: percent control (mortality, anti-feedant effect or growth inhibition) at 200 ppm [1] | percent control (mortality, anti-feedant effect or growth inhibition) at 200 ppm [2] | percent control (mortality or growth inhibition) at 200 ppm [3] | percent control (mortality or growth inhibition) at 200 ppm [4] | mortality at 500 ppm [6]

CC(NC(=O)c1cc(C(F)(F)F)cc(C(F)(F)C2CC2)c1)c1nccnc1-n1nccn1 (centres unmarked) [Compound P17, 3-[cyclopropyl(difluoro)methyl]-N-[1-[3-(triazol-2-yl)pyrazin-2-yl]ethyl]-5-(trifluoromethyl)benzamide]
≥ 80%: percent control (mortality, anti-feedant effect or growth inhibition) at 200 ppm [1] | percent control (mortality, anti-feedant effect or growth inhibition) at 200 ppm [2] | percent control (mortality or growth inhibition) at 200 ppm [3] | percent control (mortality or growth inhibition) at 200 ppm [4] | mortality at 500 ppm [6]

CC(NC(=O)c1cc(F)cc(C(F)(F)F)c1)c1nccnc1-n1nccn1 (centres unmarked) [Compound P26, 3-fluoro-N-[1-[3-(triazol-2-yl)pyrazin-2-yl]ethyl]-5-(trifluoromethyl)benzamide]
≥ 80%: percent control (mortality, anti-feedant effect or growth inhibition) at 200 ppm [1] | percent control (mortality, anti-feedant effect or growth inhibition) at 200 ppm [2] | percent control (mortality or growth inhibition) at 200 ppm [3] | percent control (mortality or growth inhibition) at 200 ppm [4] | mortality at 50 ppm [5] | mortality at 500 ppm [6]

CC(NC(=O)c1cc(C2CC2)nc(C(F)(F)F)c1)c1nccnc1-n1nccn1 (centres unmarked) [Compound P11, 2-cyclopropyl-N-[1-[3-(triazol-2-yl)pyrazin-2-yl]ethyl]-6-(trifluoromethyl)pyridine-4-carboxamide]
≥ 80%: percent control (mortality, anti-feedant effect or growth inhibition) at 200 ppm [1] | percent control (mortality, anti-feedant effect or growth inhibition) at 200 ppm [2] | percent control (mortality or growth inhibition) at 200 ppm [3] | percent control (mortality or growth inhibition) at 200 ppm [4] | mortality at 500 ppm [6]

COc1cc(OC)cc(C(=O)NC(C)c2nccnc2-n2nccn2)c1 (centres unmarked) [Compound P23, 3,5-dimethoxy-N-[1-[3-(triazol-2-yl)pyrazin-2-yl]ethyl]benzamide]
≥ 80%: percent control (mortality or growth inhibition) at 200 ppm [7] | mortality at 50 ppm [5]

CC(NC(=O)c1cc(Cl)cc(OC(F)(F)F)c1)c1nccnc1-n1nccn1 (centres unmarked) [Compound P33, 3-chloro-N-[1-[3-(triazol-2-yl)pyrazin-2-yl]ethyl]-5-(trifluoromethoxy)benzamide]
≥ 80%: percent control (mortality, anti-feedant effect or growth inhibition) at 200 ppm [1] | percent control (mortality, anti-feedant effect or growth inhibition) at 200 ppm [2] | percent control (mortality or growth inhibition) at 200 ppm [3] | percent control (mortality or growth inhibition) at 200 ppm [4] | mortality at 500 ppm [6]

CC(NC(=O)c1cc(C(F)(F)F)cc(C(F)(F)F)c1)c1nccnc1-n1cncn1 (centres unmarked) [Compound P46, N-[1-[3-(1,2,4-triazol-1-yl)pyrazin-2-yl]ethyl]-3,5-bis(trifluoromethyl)benzamide]
≥ 80%: percent control (mortality, anti-feedant effect or growth inhibition) at 200 ppm [1] | percent control (mortality, anti-feedant effect or growth inhibition) at 200 ppm [2] | percent control (mortality or growth inhibition) at 200 ppm [4] | percent control (mortality or growth inhibition) at 200 ppm [7]

CC(NC(=O)c1cc(Br)cc(Br)c1)c1nccnc1-n1nccn1 (centres unmarked) [Compound P38, 3,5-dibromo-N-[1-[3-(triazol-2-yl)pyrazin-2-yl]ethyl]benzamide]
≥ 80%: percent control (mortality, anti-feedant effect or growth inhibition) at 200 ppm [1] | percent control (mortality, anti-feedant effect or growth inhibition) at 200 ppm [2] | percent control (mortality or growth inhibition) at 200 ppm [3] | percent control (mortality or growth inhibition) at 200 ppm [4] | mortality at 500 ppm [6]

CC(NC(=O)c1cc(C(F)(F)F)cc(S(=O)(=O)C(F)(F)F)c1)c1nccnc1-n1nccn1 (centres unmarked) [Compound P13, N-[1-[3-(triazol-2-yl)pyrazin-2-yl]ethyl]-3-(trifluoromethyl)-5-(trifluoromethylsulfonyl)benzamide]
≥ 80%: percent control (mortality, anti-feedant effect or growth inhibition) at 200 ppm [1] | percent control (mortality, anti-feedant effect or growth inhibition) at 200 ppm [2] | percent control (mortality or growth inhibition) at 200 ppm [3] | percent control (mortality or growth inhibition) at 200 ppm [4] | mortality at 500 ppm [6]

CC(NC(=O)c1cc(Br)cc(OC(F)(F)F)c1)c1nccnc1-n1nccn1 (centres unmarked) [Compound P36, 3-bromo-N-[1-[3-(triazol-2-yl)pyrazin-2-yl]ethyl]-5-(trifluoromethoxy)benzamide]
≥ 80%: percent control (mortality, anti-feedant effect or growth inhibition) at 200 ppm [1] | percent control (mortality, anti-feedant effect or growth inhibition) at 200 ppm [2] | percent control (mortality or growth inhibition) at 200 ppm [3] | percent control (mortality or growth inhibition) at 200 ppm [4] | mortality at 500 ppm [6]

CC(NC(=O)c1cc(Cl)cc(Cl)c1)c1nccnc1-n1nccn1 (centres unmarked) [Compound P20, 3,5-dichloro-N-[1-[3-(triazol-2-yl)pyrazin-2-yl]ethyl]benzamide]
≥ 80%: percent control (mortality, anti-feedant effect or growth inhibition) at 200 ppm [1] | percent control (mortality, anti-feedant effect or growth inhibition) at 200 ppm [2] | percent control (mortality or growth inhibition) at 200 ppm [3] | percent control (mortality or growth inhibition) at 200 ppm [4] | percent control (mortality or growth inhibition) at 200 ppm [7]

Source: US20220289715A1, “PESTICIDALLY ACTIVE PYRAZINE-AMIDE COMPOUNDS” (priority 2019, published 2022)
